Values quoted from earlier work as cited in publication PMC11150212, “Synthesis and evaluation of [^18F]FBNAF, a STAT3-targeting probe, for PET imaging of tumor microenvironment” (EJNMMI Radiopharmacy and Chemistry, 2024).
pIC50, pKd: −log10 of the molar value. Like-named read-outs stand apart in the source and are kept apart here.

Key:
[1] = molecular target: SH2 domain of STAT3; settings: cited from earlier work
[2] = test system: RKO; set-up: method as in Wang et al. [2020]; settings: ref Wang et al. [2020]; cited from earlier work
[3] = test system: HCT116; set-up: method as in Wang et al. [2020]; settings: ref Wang et al. [2020]; cited from earlier work
[4] = test system: A549 tumor-bearing mice; set-up: method as in Zhang et al. [2012]; settings: repeated intravenous administration, ref Zhang et al. [2012]; cited from earlier work

Row | SMILES | pKd ([1]; ref Wang et al. [2020]) | pIC50 [2] | pIC50 [3] | pKd ([1]; ref Zhang et al. [2012]) | effect on tumor growth [4]
1 | Cc1ccc(COc2ccc3c(c2)C(=O)C(=O)C2=C3OC(C)C2)cc1 (centres unmarked) [LYW-6] | 5.18 | 5.42 | 5.39 | – | –
2 | CN(CC(=O)N(Cc1ccc(C2CCCCC2)cc1)c1ccc(C(=O)O)c(O)c1)S(=O)(=O)c1c(F)c(F)c(F)c(F)c1F [BP-1–102] | – | – | – | 6.30 | inhibited tumor growth
